Source: BindingDB's records for doi:10.7270/Q2XP773S (n/a, 1996)

Target: Histamine H2 receptor (Cavia porcellus, UniProt P47747)
Assay: ChEBML_85064
From the text: Histamine H2 receptor antagonistic activity

Sequence of Histamine H2 receptor (P47747 whole entry): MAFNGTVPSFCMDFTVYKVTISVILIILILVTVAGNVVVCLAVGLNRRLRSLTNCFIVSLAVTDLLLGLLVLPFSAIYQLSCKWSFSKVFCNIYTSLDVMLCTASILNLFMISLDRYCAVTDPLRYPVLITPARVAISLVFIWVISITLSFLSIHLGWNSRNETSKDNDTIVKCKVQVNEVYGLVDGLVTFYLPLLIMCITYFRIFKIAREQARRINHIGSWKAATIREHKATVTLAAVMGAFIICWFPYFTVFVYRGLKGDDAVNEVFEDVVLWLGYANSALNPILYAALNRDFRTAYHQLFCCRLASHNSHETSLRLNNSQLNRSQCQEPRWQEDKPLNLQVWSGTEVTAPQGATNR

Q: With `CN(C)CC/N=c1\c(O)c(O)c1=NC/C=C\COc1csc(CN2CCCCC2)c1` as the compound, how does the IC50 read?
A: 0.809 µM

Q: `CN(C)Cc1cc(OC/C=C\CN=c2c(O)c(O)c2=N)cs1` was tested. Which IC50 did it give?
A: 0.684 µM

Q: For `COCC/N=c1\c(O)c(O)c1=NC/C=C\COc1csc(CN2CCCCC2)c1`, which IC50 is on record?
A: 1.14 µM

Q: Which IC50 does the source give for `CC(C)/N=c1\c(O)c(O)c1=NC/C=C\COc1csc(CN2CCCCC2)c1` here?
A: 1.93 µM

Q: With `C/N=c1\c(O)c(O)c1=NC/C=C\COc1csc(CN2CCCCC2)c1` as the compound, how does the IC50 read?
A: 1.83 µM
